Results from US12534436B2, “Disubstituted adamantyl derivative or pharmaceutically acceptable salt thereof, and pharmaceutical composition for suppressing cancer growth comprising same as active ingredient” (ONECUREGEN CO., LTD., priority 2020, dated 2026).

Tests used:
[1] = system: HIF-1 (HRE-dependent luciferase reporter); test: HRE-luciferase assay, screening of HIF-1 inhibitors in HCT116 cells; format: cell-based, human; details: Homo sapiens, HCT-116; HCT116 cells stably expressing HRE-dependent luciferase reporter, hypoxic conditions, 12 hours; means of three experiments
Description: HCT116 cells stably expressing the HRE-dependent luciferase reporter were treated with the disubstituted adamantyl derivative prepared in the above example under hypoxic conditions for 12 hours before measuring luciferase activity.
(§1) In HCT116 cells treated with disubstituted adamantyl derivatives, luciferase activity was investigated using HRE-luciferase assay. The HRE-luciferase reporter assay was performed as previously described using the luciferase assay system (Promega, Madison, WI, USA) according to the manufacturer's instructions (Naik, R. et al. Synthesis and Structure-Activity Relationship of (E)Phenoxyacrylic Amide Derivatives as Hypoxia-Inducible Factor (HIF) 1α Inhibitors. J. Med. Chem. 55, 10564-1057 (2012)). Luciferase activity was measured using a Victor X light luminescence reader (PerkinElmer, Boston, MA, USA).

[2] = system: CCD-34Lu normal lung fibroblasts; test: Cell viability by methylene blue colorimetric assay, normal cells CCD-34Lu; format: cell-based; details: Homo sapiens, Fibroblast; methylene blue assay (FIG. 1B); read-out: GI50, growth of normal cells CCD-34Lu
Description: (§2) Among the newly synthesized adamantyl compounds, it was evaluated how compound 21c (LW1564, Compound 21-3), FIG. 1A) affected proliferation suppression of various cancer cells. Human breast cancer cells (MCF7), human cervical cancer cells (HeLa), human colorectal cancer cells (HCT116, HCT15, LoVo, SW480, SW620 and WiDr), human fibrosarcoma cells (HT1080), human gastric cancer cells (NCI-N87, NUGC3 and SNU484), human liver cancer cells (HepG2, HT17, Huh7, SHJ1 and SK-Hep1), human lung cancer cells (A549 and H1299), human pancreatic cancer cells (AsPC1 and MIA-PaCa2) and normal lung fibroblasts (CCD-34Lu and WI-38) were purchased from the American Type Culture Collection (Manassas, Virginia, USA) or KRIBB Cell Line Bank (Daejeon). For cell culture, cells were cultured in a DMEM medium (Gibco, Grand Island, New York, USA) supplemented with 5% (v/v) fetal bovine serum (WelGENE, Daegu, Korea) and 100 U/ml penicillin and 100 μg/ml streptomycin (Gibco). Cells were maintained at 37° C. in a humidified incubator with 5% CO2, and hypoxia and a multi-gas incubator (Sanyo, Osaka, Japan) was adjusted to 1% O2, 94% N2 and 5% CO2. Cell viability was determined by methylene blue colorimetric assay as described in the “Chou, T. C. […] The dye was eluted with 0.1% HCl (v/v) and quantified at 600 nm on a Molecular Devices EMax (Molecular Devices, CA, USA). […]

[3] = system: WI-38 normal lung fibroblasts; test: Cell viability by methylene blue colorimetric assay, normal cells WI-38; format: cell-based; details: Homo sapiens, methylene blue assay (FIG. 1B), read-out: GI50, growth of normal cells WI-38
Description: as §2

HepG2 and A549 cells = test: Cell proliferation by live cell imaging system IncuCyte ZOOM; format: cell-based, human; details: IncuCyte ZOOM (FIG. 1C)
HIF-1α activity = test: HRE-luciferase assay in HepG2 cells; format: cell-based; details: Homo sapiens; HepG2 cells (FIG. 2A)
Description: as §1, with “the presence of oxygen, when the proline residue of the oxygen-dependent degradation (ODD) domain of HIF-1α is hydroxylated by prolyl hydroxylase (PHD), HIF-1α degradation is promoted by binding to Von Hippel-Lindau syndrome (VHL) associated” for “HCT116 cells treated”, “VCB-Cul2 E3 ligase that induces proteolysis. […] First, HIF-1α” for “disubstituted adamantyl derivatives, luciferase”, “assay in HepG2 cells treated with LW1564 (compound 21-3).” for “assay.”, “la” for “1α”

HIF-1α = HIF-1α protein accumulation in other cancer cell lines under hypoxia; format: cell-based, human; details: A549, WiDr, MIA-CaCa2 and HCT116 (FIG. 2D)
intracellular oxygen = test: Intracellular oxygen with hypoxia probe MAR, HepG2 cells; format: cell-based, human; details: hypoxic conditions, 6 hours, 500 nM MAR (FIG. 3D)
Description: Since a decrease in mitochondrial respiration means an increase in the amount of intracellular oxygen, it was evaluated whether the amount of intracellular oxygen increased using MAR, an azo-based hypoxia probe that produces fluorescence under hypoxic conditions. Under hypoxic states, HepG2 cells were cultured with LW1564 (compound 21-3) for 6 hours, stained with 500 nM MAR according to the manufacturer's instructions (Chou, T. C. Theoretical basis, experimental design, and computerized simulation of synergism and antagonism in drug combination studies. Pharmacol. Rev. 58, 621-681 (2006)), and analyzed with an IncuCyte ZOOM® system (Essen BioScience, MI, USA).

HepG2 xenografted tumors = test: HepG2 xenograft mouse model; format: in vivo, mice
Excerpt: In the HepG2 xenograft mouse model, the efficacy of LW1564 (compound 21-3) on tumor proliferation was investigated. All animal experiments were approved and performed according to the guidelines of the Institutional Animal Care and Use Committee of the Korea Research Institute of Bioscience & Biotechnology (Daejeon, Korea). Specific pathogen-free female nude mice (6 weeks old) were inoculated with HepG2 cells (1×10^7) subcutaneously on the right flank. When tumor volumes reached 100 to 150 mm^3, mice were randomly assigned to vehicle and LW1564 (compound 21-3) treatment groups (n=6). LW1564 (compound 21-3) (10 mg/kg) was administered intraperitoneally daily for 2 weeks. The tumor size was measured using a microcalliper, and the tumor volume was calculated using a standard volume: length×width^2×0.5. Significant differences between the two groups were determined by Student's t-test.

COc1cc2c(cc1OC)CN(C(=O)C13CC4CC(C1)CC(c1ccc(OCC(=O)N5CCN(Cc6ccc(C(F)(F)F)cc6)CC5)cc1)(C4)C3)CC2 [Compound 21c, 2-(4-(3-(6,7-Dimethoxy-1,2,3,4-tetrahydroisoquinoline-2-carbonyl)adamantan-1-yl)phenoxy)-1-(4-(4-(trifluoromethyl)benzyl)piperazin-1-yl) ethanone]
IC50 [1]: 1100 nM
GI50 [2]: > 20000 nM
GI50 [3]: > 20000 nM
proliferation inhibition, live cell imaging (HepG2 and A549 cells): induced proliferation inhibition of HepG2 and A549 cells in a dose-dependent manner
IC50 (HIF-1α activity): 1200 nM
HIF-1α protein accumulation in various cancer cell lines (HIF-1α): significantly reduced HIF-1α protein accumulation
MAR fluorescence (hypoxia probe) (intracellular oxygen): significantly reduced fluorescence
weight of the tumors removed from the mice (HepG2 xenografted tumors; 10 mg/kg intraperitoneally daily for 2 weeks (FIG. 6 middle)): reduced
reduction in tumor size compared to the control group (HepG2 xenografted tumors; 10 mg/kg intraperitoneally daily for 2 weeks, female nude mice (FIG. 6 left)): 67%
